Results taken from US5591741A, “Fungicidal spiroheterocyclic derivatives” (American Cyanamid Company, priority 1993, dated 1997).

Assays:
Plasmopara viticola = assay: Antisporulant activity against vine downy mildew (PVA); format: in vivo; details: vine leaves, antisporulant foliar spray, 600 ppm, 750 l/ha
Outline: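 Cabernet Sauvignon vines (~8 cm) inoculated on lower leaf surfaces with 5×10^4 zoosporangia/ml, held 24 h at 21° C high humidity then 24 h glasshouse. Infected leaves sprayed underside with 600 ppm compound in 1:1 water/acetone, 0.04% Tween 20, 750 l/ha; 96 h glasshouse, 24 h humidity. Sporulating leaf area rated versus control.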

Alternaria solani = assay: Activity against tomato early blight (AS); format: in vivo; details: Table VI; tomato seedlings, contact prophylactic foliar spray, 4 days
Outline: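 Foliar contact prophylactic spray on tomato seedlings (cv Outdoor Girl, second true leaf expanded) in acetone/water 50:50 with 0.04% Tween 20; 24 h at 20° C, 40% R.H., then inoculation with 10^4 spores/ml A. solani conidia. Kept moist at 21° C; lesion cover rated 4 days post-inoculation against untreated or diluent-sprayed controls.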

Botrytis cinerea = assay: Direct protectant activity against broad bean grey mould (BCB); format: in vivo; details: direct protectant foliar spray, 600 ppm, 4 days
Outline: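 Broad bean plants (cv The Sutton, two leaf pairs) sprayed on upper leaf surfaces at 600 ppm, then inoculated 24 h later with 10^6 conidia/ml. Kept 4 days at 22 °C, high humidity; disease control rated from % leaf area with lesions against untreated or diluent controls.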

Leptosphaeria nodorum = assay: Activity against wheat leafspot (LN); format: in vivo; details: direct therapeutic foliar spray, 600 ppm, 6-8 days
Outline: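 Wheat cv Norman at single-leaf stage spray-inoculated with 1.5×10^6 conidia/ml, held 24 h at high humidity, then sprayed therapeutically with test compound at 600 ppm. Kept 6-8 days at 22° C, 70% humidity; lesion density per leaf rated against untreated or diluent-sprayed controls.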

[1] = system: Erysiphe graminis f.sp. hordei; assay: Activity against barley powdery mildew, direct therapeutic (EGT); format: in vivo; details: direct therapeutic foliar spray, 600 ppm, up to 7 days
Outline: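 Barley seedlings (cv. Golden Promise, single-leaf stage) were dusted with mildew conidia one day before a therapeutic foliar spray of 600 ppm compound. Plants were kept at 18 °C and 40% humidity for up to 7 days, and sporulating leaf area was rated against untreated or diluent-sprayed controls.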

[2] = system: Erysiphe graminis f.sp. hordei; assay: Direct protectant activity against barley powdery mildew (EGP); format: in vivo; details: direct protectant foliar spray, 8 days
Outline: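 Barley seedlings (cv Golden Promise, single-leaf stage) were foliar-sprayed, held 24 h at 18 °C/40% RH, then dusted with mildew conidia. After 8 days at 18 °C/40% RH, sporulating leaf area was scored as a rating against untreated or diluent-sprayed controls.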

Phytophthora infestans = format: in vivo; details: tomato, direct protectant foliar spray
[3] = system: Pseudocercosporella herpotrichoides; assay: Activity against wheat eyespot in-vitro (PHI); format: cell-based; details: 10 ppm, 10 days, 20° C., mycelial growth
Outline: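 P. herpotrichoides mycelial fragments (5×10^4/ml) grown in half-strength PDB with compound at 10 ppm final, added from acetone. Incubated 10 days at 20 °C; mycelial growth rated against untreated or diluent controls.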

Rhizoctonia solani = assay: Activity against Rhizoctonia in-vitro (RSI); format: cell-based; details: 10 ppm, 10 days, 20° C., mycelial growth
Outline: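 R. solani mycelial fragments (5×10^4/ml) in half-strength Potato Dextrose Broth with compound added from acetone to 10 ppm final. Mycelial growth assessed after 10 days at 20° C, rated against untreated or diluent control.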

Venturia inaequalis = assay: Activity against apple scab in-vitro (VII); format: cell-based; details: 10 ppm, 10 days, 20° C., mycelial growth
Outline: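 Compound in acetone was tested at 10 ppm final in half-strength Potato Dextrose Broth inoculated with V. inaequalis mycelial fragments and spores at 5×10^4 propagules/ml. After 10 days at 20° C, mycelial growth was rated against untreated or diluent controls.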

Pyricularia oryzae = format: in vivo; details: rice seedlings, direct therapeutic foliar spray, 600 ppm, 4-5 days

SMILES	disease control rating PVA (Plasmopara viticola)	disease control rating AS (Alternaria solani)	disease control rating BCB (Botrytis cinerea)	disease control rating LN (Leptosphaeria nodorum)	disease control rating EGT [1]	disease control rating EGP [2]	disease control rating PIP (Phytophthora infestans)	disease control rating PHI [3]	disease control rating RSI (Rhizoctonia solani)	disease control rating VII (Venturia inaequalis)	disease control rating PO (Pyricularia oryzae)
CCC(C)(C)C1CCC2(CC1)CC(N1CC(C)CC(C)C1)CO2 (centres unmarked) [Compound 52]	0 (less than 50% disease control)	0 (less than 50% disease control)	0 (less than 50% disease control)	0 (less than 50% disease control)	2 (greater than 80% disease control)	2 (greater than 80% disease control)	0 (less than 50% disease control)	1 (about 50-80% disease control)	1 (about 50-80% disease control)	1 (about 50-80% disease control)	0 (less than 50% disease control)
CC(C)(C)C1CCC2(CC1)CC(NCc1ccc(Br)cc1)CO2 (centres unmarked) [Compound 29]	0 (less than 50% disease control)	0 (less than 50% disease control)	0 (less than 50% disease control)	0 (less than 50% disease control)	2 (greater than 80% disease control)	2 (greater than 80% disease control)	0 (less than 50% disease control)	0 (less than 50% disease control)	0 (less than 50% disease control)	2 (greater than 80% disease control)	0 (less than 50% disease control)
CCC(CC)N(CC)C1COC2(CCC(C(C)(C)C)CC2)C1 (centres unmarked) [Compound 95]	0 (less than 50% disease control)	0 (less than 50% disease control)	0 (less than 50% disease control)	0 (less than 50% disease control)	2 (greater than 80% disease control)	2 (greater than 80% disease control)	0 (less than 50% disease control)	0 (less than 50% disease control)	1 (about 50-80% disease control)	0 (less than 50% disease control)	0 (less than 50% disease control)
CC1CCCCN1C1COC2(CCC(C(C)(C)C)CC2)C1 (centres unmarked) [Compound 17]	0 (less than 50% disease control)	0 (less than 50% disease control)	0 (less than 50% disease control)	0 (less than 50% disease control)	2 (greater than 80% disease control)	2 (greater than 80% disease control)	0 (less than 50% disease control)	0 (less than 50% disease control)	0 (less than 50% disease control)	0 (less than 50% disease control)	0 (less than 50% disease control)
CC(C)(C)C1CCC2(CC1)CC(NCc1ccccc1)CO2 (centres unmarked) [Compound 31]	2 (greater than 80% disease control)	1 (about 50-80% disease control)	0 (less than 50% disease control)	0 (less than 50% disease control)	2 (greater than 80% disease control)	2 (greater than 80% disease control)	0 (less than 50% disease control)	0 (less than 50% disease control)	0 (less than 50% disease control)	1 (about 50-80% disease control)	0 (less than 50% disease control)
CCCCCN(C)C1COC2(CCC(C(C)(C)C)CC2)C1 (centres unmarked) [Compound 78]	0 (less than 50% disease control)	0 (less than 50% disease control)	1 (about 50-80% disease control)	0 (less than 50% disease control)	2 (greater than 80% disease control)	2 (greater than 80% disease control)	0 (less than 50% disease control)	0 (less than 50% disease control)	0 (less than 50% disease control)	0 (less than 50% disease control)	0 (less than 50% disease control)
CN(C)C1COC2(CCC(C(C)(C)C)CC2)C1 (centres unmarked) [Compound 67]	0 (less than 50% disease control)	0 (less than 50% disease control)	0 (less than 50% disease control)	1 (about 50-80% disease control)	2 (greater than 80% disease control)	2 (greater than 80% disease control)	2 (greater than 80% disease control)	0 (less than 50% disease control)	0 (less than 50% disease control)	0 (less than 50% disease control)	1 (about 50-80% disease control)
CC(C)CNC1COC2(CCC(C(C)(C)C)CC2)C1 (centres unmarked) [Compound 66]	0 (less than 50% disease control)	0 (less than 50% disease control)	2 (greater than 80% disease control)	0 (less than 50% disease control)	2 (greater than 80% disease control)	2 (greater than 80% disease control)	0 (less than 50% disease control)	0 (less than 50% disease control)	0 (less than 50% disease control)	0 (less than 50% disease control)	0 (less than 50% disease control)
CCCNC1COC2(CCC(C(C)(C)C)CC2)C1 (centres unmarked) [Compound 62]	0 (less than 50% disease control)	0 (less than 50% disease control)	1 (about 50-80% disease control)	0 (less than 50% disease control)	2 (greater than 80% disease control)	2 (greater than 80% disease control)	0 (less than 50% disease control)	0 (less than 50% disease control)	0 (less than 50% disease control)	0 (less than 50% disease control)	0 (less than 50% disease control)
CC(C)(C)C1CCC2(CC1)CC(O)(CNC1CCCCC1)CO2 (single isomer, unassigned) [Compound 213, 8-t-Butyl-3-cyclohexylaminomethyl-3-hydroxy-1-oxaspiro-(4,5)decane]	0 (less than 50% disease control)	2 (greater than 80% disease control)	2 (greater than 80% disease control)	0 (less than 50% disease control)	2 (greater than 80% disease control)	2 (greater than 80% disease control)	2 (greater than 80% disease control)	0 (less than 50% disease control)	0 (less than 50% disease control)	0 (less than 50% disease control)	1 (about 50-80% disease control)
